From the NIST ThermoML archive (doi:10.1021/je500314x)
± gives the expanded uncertainty stated by the source.

How the values were obtained:
[1] = wn = mass fraction of the nth substance listed; settings: Liquid, gamma densitometer
[2] = Liquid, gamma densitometer

SMILES: CCCCCCCC [octane] + CCCCCCC
- mass density ([1]; 303.1 K, 5100 kPa, w2 = 0.5): 686.2 ± 3.9 kg/m3
- mass density ([1]; 313.3 K, 5100 kPa, w2 = 0.5): 678.1 ± 3.9 kg/m3
- mass density ([1]; 323 K, 5100 kPa, w2 = 0.5): 670 ± 3.8 kg/m3
- mass density ([1]; 332.7 K, 5100 kPa, w2 = 0.5): 663.3 ± 3.7 kg/m3
- mass density ([1]; 344.1 K, 5100 kPa, w2 = 0.5): 655.9 ± 3.9 kg/m3
- mass density ([1]; 353.2 K, 5100 kPa, w2 = 0.5): 645.5 ± 3.9 kg/m3
- mass density ([1]; 362.9 K, 5100 kPa, w2 = 0.5): 638.9 ± 3.8 kg/m3
- mass density ([1]; 372.3 K, 5100 kPa, w2 = 0.5): 632.3 ± 3.8 kg/m3
- mass density ([1]; 374.7 K, 3300 kPa, w2 = 0.255): 633.2 ± 4.2 kg/m3
- mass density ([1]; 374.8 K, 8000 kPa, w2 = 0.255): 640.4 ± 4.2 kg/m3
- mass density ([1]; 380.5 K, 3200 kPa, w2 = 0.51): 619.9 ± 4.2 kg/m3
- mass density ([1]; 380.5 K, 8700 kPa, w2 = 0.51): 631.1 ± 4.2 kg/m3
- mass density ([1]; 383.2 K, 5100 kPa, w2 = 0.5): 623.2 ± 3.9 kg/m3
- mass density ([1]; 393 K, 5100 kPa, w2 = 0.5): 611.8 ± 3.9 kg/m3
- mass density ([1]; 405.1 K, 5100 kPa, w2 = 0.5): 604.3 ± 4 kg/m3
- mass density ([1]; 413.8 K, 5100 kPa, w2 = 0.5): 592.5 ± 4.7 kg/m3
- mass density ([1]; 424.2 K, 5100 kPa, w2 = 0.5): 584.4 ± 4.5 kg/m3
- mass density ([1]; 424.4 K, 4900 kPa, w2 = 0.51): 582.4 ± 4.8 kg/m3
- mass density ([1]; 424.5 K, 7200 kPa, w2 = 0.51): 588 ± 4.2 kg/m3
- mass density ([1]; 429.4 K, 3500 kPa, w2 = 0.255): 584 ± 4.2 kg/m3
- mass density ([1]; 429.4 K, 8300 kPa, w2 = 0.255): 592.3 ± 4.4 kg/m3
- mass density ([1]; 433.2 K, 5100 kPa, w2 = 0.5): 573.5 ± 5.5 kg/m3
- mass density ([1]; 443 K, 5100 kPa, w2 = 0.5): 560.6 ± 4.4 kg/m3
- mass density ([1]; 453.1 K, 5100 kPa, w2 = 0.5): 554.4 ± 3.8 kg/m3
- mass density ([1]; 464.5 K, 5100 kPa, w2 = 0.5): 545.2 ± 4.8 kg/m3
- mass density ([1]; 466.6 K, 3200 kPa, w2 = 0.51): 535.5 ± 4.2 kg/m3
- mass density ([1]; 466.7 K, 8600 kPa, w2 = 0.51): 554.2 ± 4.7 kg/m3
- mass density ([1]; 473.6 K, 5100 kPa, w2 = 0.5): 531.6 ± 4.8 kg/m3
- mass density ([1]; 475.8 K, 4400 kPa, w2 = 0.255): 538.4 ± 5.8 kg/m3
- mass density ([1]; 475.9 K, 8500 kPa, w2 = 0.255): 554.4 ± 4.4 kg/m3
- mass density ([1]; 484.2 K, 5100 kPa, w2 = 0.5): 524 ± 5.3 kg/m3
- mass density ([1]; 492.8 K, 5100 kPa, w2 = 0.5): 508 ± 6.3 kg/m3
- mass density ([1]; 503.1 K, 5100 kPa, w2 = 0.5): 495.9 ± 5.3 kg/m3
- mass density ([1]; 513.2 K, 5100 kPa, w2 = 0.5): 483.6 ± 5.4 kg/m3
- mass density ([1]; 518 K, 4900 kPa, w2 = 0.51): 479.1 ± 5.4 kg/m3
- mass density ([1]; 518 K, 7500 kPa, w2 = 0.51): 494.8 ± 4.6 kg/m3
- mass density ([1]; 522.4 K, 5100 kPa, w2 = 0.5): 470.1 ± 7.2 kg/m3
- mass density ([1]; 525.5 K, 4700 kPa, w2 = 0.255): 473.6 ± 5.8 kg/m3
- mass density ([1]; 525.5 K, 7300 kPa, w2 = 0.255): 493.5 ± 4.9 kg/m3
- mass density ([1]; 533 K, 5100 kPa, w2 = 0.5): 451.2 ± 6.6 kg/m3
- mass density ([1]; 543.3 K, 5100 kPa, w2 = 0.5): 437.7 ± 7.5 kg/m3
- mass density ([1]; 549.3 K, 5400 kPa, w2 = 0.51): 427.9 ± 6.9 kg/m3
- mass density ([1]; 549.4 K, 8700 kPa, w2 = 0.51): 461.2 ± 5.5 kg/m3
- mass density ([1]; 553 K, 5100 kPa, w2 = 0.5): 415.1 ± 8.9 kg/m3
- mass density ([1]; 557.2 K, 5300 kPa, w2 = 0.255): 427.1 ± 6.3 kg/m3
- mass density ([1]; 557.2 K, 8200 kPa, w2 = 0.255): 460.9 ± 4.9 kg/m3
- mass density ([1]; 563.5 K, 5100 kPa, w2 = 0.5): 394 ± 7.9 kg/m3
- mass density ([1]; 575.1 K, 5100 kPa, w2 = 0.5): 372.9 ± 9.2 kg/m3
- mass density ([1]; 583.8 K, 5100 kPa, w2 = 0.5): 348.2 ± 14 kg/m3
- mass density ([1]; 591.2 K, 5100 kPa, w2 = 0.5): 319 ± 16 kg/m3

SMILES: O [water]
- mass density ([2]; 286 K, 3000 kPa): 1000.7 ± 3.1 kg/m3
- mass density ([2]; 288.3 K, 5000 kPa): 1001.4 ± 3.3 kg/m3
- mass density ([2]; 303.5 K, 5000 kPa): 996.5 ± 3.2 kg/m3
- mass density ([2]; 305 K, 3000 kPa): 996.2 ± 3.3 kg/m3
- mass density ([2]; 322.6 K, 3000 kPa): 988.4 ± 3.6 kg/m3
- mass density ([2]; 324.8 K, 5000 kPa): 990.7 ± 3.3 kg/m3
- mass density ([2]; 343.4 K, 3000 kPa): 977.7 ± 3.8 kg/m3
- mass density ([2]; 344.3 K, 5000 kPa): 981.8 ± 4.1 kg/m3
- mass density ([2]; 356.4 K, 3000 kPa): 969 ± 3.6 kg/m3
- mass density ([2]; 358.6 K, 5000 kPa): 966.8 ± 4.6 kg/m3
- mass density ([2]; 372.3 K, 5000 kPa): 957.1 ± 4.3 kg/m3
- mass density ([2]; 374.7 K, 3000 kPa): 962.3 ± 4.1 kg/m3
- mass density ([2]; 384 K, 5000 kPa): 947 ± 4.6 kg/m3
- mass density ([2]; 391.2 K, 3000 kPa): 945 ± 4.7 kg/m3
- mass density ([2]; 393.6 K, 5000 kPa): 938.5 ± 4.2 kg/m3
- mass density ([2]; 403.8 K, 5000 kPa): 932.6 ± 4.3 kg/m3
- mass density ([2]; 412.5 K, 3000 kPa): 927.7 ± 4.3 kg/m3
- mass density ([2]; 414.2 K, 5000 kPa): 923 ± 4.7 kg/m3
- mass density ([2]; 423.2 K, 5000 kPa): 915.2 ± 5.2 kg/m3
- mass density ([2]; 423.8 K, 3000 kPa): 920.4 ± 4.9 kg/m3
- mass density ([2]; 432.8 K, 5000 kPa): 903.3 ± 5.3 kg/m3
- mass density ([2]; 442.5 K, 3000 kPa): 899.6 ± 5.1 kg/m3
- mass density ([2]; 442.7 K, 5000 kPa): 893.8 ± 4.9 kg/m3
- mass density ([2]; 452.6 K, 5000 kPa): 884.3 ± 4.6 kg/m3
- mass density ([2]; 462 K, 5000 kPa): 876.7 ± 4.7 kg/m3
- mass density ([2]; 462.5 K, 3000 kPa): 880.9 ± 4.7 kg/m3
- mass density ([2]; 471.4 K, 3000 kPa): 873.1 ± 5.2 kg/m3
- mass density ([2]; 474.3 K, 5000 kPa): 864.5 ± 5 kg/m3
- mass density ([2]; 483.9 K, 3000 kPa): 858.3 ± 6.6 kg/m3
- mass density ([2]; 484.1 K, 5000 kPa): 854.6 ± 6.5 kg/m3
- mass density ([2]; 491.4 K, 5000 kPa): 839.5 ± 7 kg/m3
- mass density ([2]; 492.5 K, 3000 kPa): 841.7 ± 8 kg/m3
- mass density ([2]; 500.4 K, 3000 kPa): 827.9 ± 7.6 kg/m3
- mass density ([2]; 502.5 K, 5000 kPa): 824.9 ± 6 kg/m3
- mass density ([2]; 511 K, 5000 kPa): 814.1 ± 5.9 kg/m3
